The source made the active and inactive calls. No cut-off for these calls is given here.
Assays:
Hepatitis B virus [1] = test: Antiviral activity against HBV infected in human HepG2.2.15 assessed as HBV DNA reduction by qPCR method; type: functional, organism-based
Hepatitis B virus [2] = test: Antiviral activity against HBV infected in human HepG2.2.15 assessed as reduction on HBsAg level by ELISA; type: functional, organism-based
[3] = Toxicity in mouse infected with AAV encapsidated HBV assessed as change in body weight at 10 mg/kg, po QD for 4 weeks; type: organism-based; details: in vivo, 672 h
Hepatitis B virus [4] = test: In vivo antiviral activity against AAV encapsidated HBV infected in mouse assessed as reduction in HBsAg level at 10 mg/kg, po QD for 4 weeks by ELISA; type: functional, organism-based
Hepatitis B virus [5] = test: In vivo antiviral activity against AAV encapsidated HBV infected in mouse assessed as reduction in HBeAg level at 10 mg/kg, po QD for 4 weeks by ELISA; type: functional, organism-based
[6] = Toxicity in rat assessed as organ abnormality at 100 to 300 mg/kg, po QD for 14 days; type: organism-based; details: in vivo, 336 h, dose 100-300 mg/kg, time 14 day
[7] = Toxicity in rat assessed as mild myocardial degeneration of heart at 1000 mg/kg, po QD for 14 days; type: organism-based; details: in vivo, 336 h, time 14 day
[8] = Toxicity in rat assessed as mild central lobular hepatocyte degeneration of liver at 1000 mg/kg, po QD for 14 days; type: organism-based; details: hepatocytes, 336 h, time 14 day
[9] = Toxicity in rat assessed as mild white myeloid lymphocytopenia of spleen at 1000 mg/kg, po QD for 14 days; type: organism-based; details: in vivo, 336 h, time 14 day
[10] = Toxicity in rat assessed as moderate acute mucosal inflammation of duodenum at 1000 mg/kg, po QD for 14 days; type: organism-based; details: in vivo, 336 h, time 14 day
[11] = Toxicity in rat assessed as mydriasis at 300 to 1000 mg/kg, po; type: organism-based; details: in vivo, dose 300-1000 mg/kg
[12] = Toxicity in rat assessed as decrease in normal rectal temperature at 300 mg/kg, po; type: organism-based; details: in vivo
[13] = Toxicity in rat assessed as decrease in normal rectal temperature at 1000 mg/kg, po; type: organism-based; details: in vivo
Hepatitis B virus [14] = test: In vivo antiviral activity against AAV encapsidated HBV infected in mouse assessed as reduction in HBsAg level at 1 mg/kg, po QD for 4 weeks in presence of (R)-7-(tert-butyl)-2-methoxy-3-(3-methoxypropoxy)-11-oxo-6,7-dihydro-11H-benzo[f]pyrido[1,2-d][1,4]oxazepine-10-carboxylic acid by ELISA; type: functional, organism-based
Hepatitis B virus [15] = test: In vivo antiviral activity against AAV encapsidated HBV infected in mouse assessed as reduction in HBeAg level at 1 mg/kg, po QD for 4 weeks in presence of (R)-7-(tert-butyl)-2-methoxy-3-(3-methoxypropoxy)-11-oxo-6,7-dihydro-11H-benzo[f]pyrido[1,2-d][1,4]oxazepine-10-carboxylic acid by ELISA; type: functional, organism-based
Hepatitis B virus [16] = test: In vivo antiviral activity against AAV encapsidated HBV infected in mouse assessed as reduction in HBV DNA at 1 mg/kg, po QD for 4 weeks in presence of (R)-7-(tert-butyl)-2-methoxy-3-(3-methoxypropoxy)-11-oxo-6,7-dihydro-11H-benzo[f]pyrido[1,2-d][1,4]oxazepine-10-carboxylic acid by qPCR method; type: functional, organism-based
Hepatitis B virus [17] = test: Antiviral activity against HBV infected in human primary hepatocytes assessed as HBV DNA reduction by qPCR method; type: functional, organism-based; details: Hepatocyte
Hepatitis B virus [18] = test: Antiviral activity against HBV infected in human primary hepatocytes assessed as reduction on HBsAg level by ELISA; type: functional, organism-based; details: Hepatocyte
Hepatitis B virus [19] = test: Antiviral activity against HBV infected in human primary hepatocytes assessed as reduction on HBeAg level by ELISA; type: functional, organism-based; details: Hepatocyte
Hepatitis B virus [20] = test: Antiviral activity against HBV infected in human HepG2.2.15 cells assessed as reduction of 3.5 Kb HBV RNA level at 50 nM and incubated for 4 to 48 hrs by Northern blot anlaysis; type: functional, organism-based; details: time 4-48 hrs
[21] = Toxicity in mouse infected with AAV encapsidated HBV assessed as change in body weight at 1 mg/kg, po QD for 4 weeks; type: organism-based; details: in vivo, 672 h
[22] = Clearance in C57BL/6 mouse at 1 mg/kg, iv; type: ADME, organism-based; details: in vivo
[23] = Volume of distribution in steady state in C57BL/6 mouse at 1 mg/kg, iv; type: ADME, organism-based; details: in vivo, read-out: Vdss
[24] = Half life in C57BL/6 mouse at 1 mg/kg, iv; type: ADME, organism-based; details: in vivo
[25] = Cmax in C57BL/6 mouse at 2 mg/kg, po; type: ADME, organism-based; design: dose 2 mg/kg, route po; details: in vivo
[26] = AUC (0-last) in C57BL/6 mouse at 2 mg/kg, po; type: ADME, organism-based; design: dose 2 mg/kg, route po; details: in vivo
[27] = Oral bioavailability in C57BL/6 mouse at 2 mg/kg; type: ADME, organism-based; details: in vivo
[28] = Clearance in Sprague-Dawley rat at 1 mg/kg, iv; type: ADME, organism-based; details: in vivo
[29] = Volume of distribution in steady state in Sprague-Dawley rat at 1 mg/kg, iv; type: ADME, organism-based; details: in vivo, read-out: Vdss
[30] = Half life in Sprague-Dawley rat at 1 mg/kg, iv; type: ADME, organism-based; details: in vivo
[31] = Cmax in Sprague-Dawley rat at 2 mg/kg, po; type: ADME, organism-based; design: dose 2 mg/kg, route po; details: in vivo
[32] = AUC (0-last) in Sprague-Dawley rat at 2 mg/kg, po; type: ADME, organism-based; design: dose 2 mg/kg, route po; details: in vivo
[33] = Oral bioavailability in Sprague-Dawley rat at 2 mg/kg; type: ADME, organism-based; details: in vivo

COCCCOc1cc2c(cc1Cl)-c1cc(=O)c(C(=O)O)cn1[C@H](CC(C)C)CO2
EC50 (Hepatitis B virus [1]): 102 nM | EC50 (Hepatitis B virus [2]): 128 nM

COCCCOc1cc2c(cc1OC)-c1cc(=O)c(C(=O)O)cn1[C@H](C(C)C)C2
EC50 (Hepatitis B virus [1]): 0.8 nM | EC50 (Hepatitis B virus [2]): 0.8 nM | Activity [3]: Non-Toxic | Activity (Hepatitis B virus [4]): Active | Activity (Hepatitis B virus [5]): Active | Activity [6]: Non-Toxic | Activity [7]: Toxic | Activity [8]: Toxic | Activity [9]: Toxic | Activity [10]: Toxic | Activity [11]: Toxic | Activity [12]: Toxic | Activity [13]: Toxic

CC(C)OC(=O)OCOP(=O)(CO[C@H](C)Cn1cnc2c(N)ncnc21)OCOC(=O)OC(C)C
Activity (Hepatitis B virus [14]): inactive | Activity (Hepatitis B virus [15]): inactive | Activity (Hepatitis B virus [16]): Active

COCCCOc1cc2c(cc1Cl)-c1cc(=O)c(C(=O)O)cn1[C@H](C1CCC1)CO2
EC50 (Hepatitis B virus [1]): 531 nM | EC50 (Hepatitis B virus [2]): 125 nM

C=C1[C@H](CO)[C@@H](O)C[C@@H]1n1cnc2c(=O)[nH]c(N)nc21.O [ENTECAVIR]
EC50 (Hepatitis B virus [17]): 0.0078 nM | EC50 (Hepatitis B virus [18]): > 0.05 nM | EC50 (Hepatitis B virus [19]): > 0.05 nM | Activity (Hepatitis B virus [20]): inactive | Activity [21]: Non-Toxic

COCCCOc1ccc(-c2cc(=O)c(C(=O)O)cn2-c2ccccc2C)cc1Cl
EC50 (Hepatitis B virus [1]): 140 nM | EC50 (Hepatitis B virus [2]): 230 nM

CC[C@@H]1COc2cc(OCCCOC)c(Cl)cc2-c2cc(=O)c(C(=O)O)cn21
EC50 (Hepatitis B virus [1]): 44.7 nM | EC50 (Hepatitis B virus [2]): 47.2 nM

COCCCOc1cc2c(cc1C(C)=O)-c1cc(=O)c(C(=O)O)cn1[C@H](C(C)(C)C)CO2
EC50 (Hepatitis B virus [1]): 0.5 nM | EC50 (Hepatitis B virus [2]): 1.3 nM | clearance [22]: 4.86 L/h/kg | Vd [23]: 2.5 L/kg | half-life [24]: 0.6 h | Cmax [25]: 0.604 µM | AUC(0-t) [26]: 478 nM·h | bioavailability [27]: 55.3% | clearance [28]: 1.98 L/h/kg | Vd [29]: 1 L/kg | half-life [30]: 0.8 h | Cmax [31]: 0.104 µM | AUC(0-t) [32]: 228 nM·h | bioavailability [33]: 10.4%

COCCCOc1cc2c(cc1Cl)-c1cc(=O)c(C(=O)O)cn1[C@H](C(C)C)C2
EC50 (Hepatitis B virus [1]): 0.8 nM | EC50 (Hepatitis B virus [2]): 0.9 nM

COCCCOc1cc2c(cc1Cl)-c1cc(=O)c(C(=O)O)cn1[C@H](c1ccccc1)CO2
EC50 (Hepatitis B virus [1]): > 1000 nM | EC50 (Hepatitis B virus [2]): > 1000 nM

COCCCOc1cc2c(cc1Cl)-c1cc(=O)c(C(=O)O)cn1[C@H](C)CO2
EC50 (Hepatitis B virus [1]): 193 nM | EC50 (Hepatitis B virus [2]): 226 nM

COCCCOc1cc2c(cc1Cl)-c1cc(=O)c(C(=O)O)cn1[C@H](C1CC1)CO2
EC50 (Hepatitis B virus [1]): 105 nM | EC50 (Hepatitis B virus [2]): 66.2 nM

COCCCOc1cc2c(cc1Cl)-c1cc(=O)c(C(=O)O)cn1[C@H](C(C)C)CO2
EC50 (Hepatitis B virus [1]): 8.8 nM | EC50 (Hepatitis B virus [2]): 6.6 nM | clearance [22]: 1.92 L/h/kg | Vd [23]: 1.7 L/kg | half-life [24]: 1.6 h | Cmax [25]: 1.31 µM | AUC(0-t) [26]: 1340 nM·h | bioavailability [27]: 56.3%

COCCCOc1cc2c(cc1Cl)-c1cc(=O)c(C(=O)O)cn1[C@H](C(C)(C)C)CO2
EC50 (Hepatitis B virus [1]): 0.5 nM | EC50 (Hepatitis B virus [2]): 0.7 nM | clearance [22]: 3.51 L/h/kg | Vd [23]: 4.9 L/kg | half-life [24]: 6.3 h | Cmax [25]: 0.203 µM | AUC(0-t) [26]: 193 nM·h | bioavailability [27]: 18.3%

Source: ChEMBL document CHEMBL5223122, “Discovery and preclinical evaluations of GST-HG131, a novel HBV antigen inhibitor for the treatment of chronic hepatitis B infection” (Bioorg Med Chem Lett, 2022)
